Results reported in US12146134B2, “Microfluidic devices and methods of use in the formation and control of nanoreactors” (Bio-Rad Laboratories, Inc., priority 2006, dated 2024).
{Fluorescein} = fluorescein label; {Biotin} = biotin label

B1: 101: 5′ Biotin-labeled oligonucleotide, SEQ ID NO: 1 (nucleic acid)
DNA: ATCCGCCCCAGCAGCTGCCAGGCACAGCCCCTAAACTCCTGATTTATGCTGCATCCATTTTGC
modifications: DNA, 5' {Biotin}, backbone not given here

How the values were obtained:
[1] = test system: Oligonucleotide 102; experiment: measurement of DNA hybridization using fluorescence polarization (FP) on the microfluidic device; assay type: binding; details: addition of oligonucleotide to the fluorescein-labeled 102
Description: (A) FP can be used to measure the binding of 2 DNA molecules on the microfluidic device. (B) Oligonucleotide 102 is complement to both 101 and 103. […] Oligonucleotides; #101:[NT] ID NO: 1); #102: [NT] ID NO: 2); #103: [NT] NO: 3).

[2] = target: Steptaviden (Streptomyces avidinii, UniProt P22629); experiment: fluorescence polarization measurements in droplets inside the microfluidic device (biotin/streptavidin binding); details: droplets 65 to 75 um, 10 mM Borate pH 9, data normalized so P(Fluorescein)=0.0
Description: In addition to molecular beacons and Taqman, the devices of the present invention can be used to cany out fluorescence polarization as described herein. Most SNP assays can be adapted for both mini-sequencing and gene expression analysis. A series of fluorescence polarization measurements have been made inside a microfluidic device according to the present invention while looking at droplets containing Fluorescein, Fluorescein bound to biotin, and Fluorescein bound to biotin+Steptaviden. The fluorescence signal was split into two orthogonal polarizations: one parallel to the laser excitation polarization, and one perpendicular to the polarization. These signal were collected and analyzed to determine the change in polarization of the fluorescence for each of these binding conditions.
The Polarization is calculated from:
[formula] Where V=fluorescence signal polarized parallel to laser excitation polarization, and H=fluorescence signal polarized perpendicular.
The fluorescence station was modified to include cleanup polarizer for the laser and a polarizing beamsplitter with cleanup polarizers for collection. The two resulting fluorescence channels collect light with orthogonal polarizations (“Vertical” is parallel to the laser polarization, “Horizontal” is perpendicular to the laser polarization). […]

Steptaviden, sequence (P22629 25-183): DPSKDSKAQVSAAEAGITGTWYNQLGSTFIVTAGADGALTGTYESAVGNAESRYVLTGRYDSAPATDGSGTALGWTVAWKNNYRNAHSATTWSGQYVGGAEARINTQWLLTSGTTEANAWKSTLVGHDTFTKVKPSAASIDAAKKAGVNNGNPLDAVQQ

| Molecule | shift of mP value of labeled 102, indicative of binding [1] | Polarization (mean of histogram grouping) [2] [mP] |
| --- | --- | --- |
| 103: 5′ Fluorescein-labeled oligonucleotide, SEQ ID NO: 3 (DNA CTAAACTCCTGATTTATGCTGCATCCATTTTGC; DNA, 5' {Fluorescein}, backbone not given here) [compound 103] | shifts the mP value | – |
| Biotinylated Fluorescein [Biotinalated Fluorescein] | – | 18.4 |
| B1 | shifts the mP value | – |
